Source: the NIST ThermoML archive (doi:10.1021/acs.jced.9b00028)
± gives the expanded uncertainty stated by the source.

Experiments:
[1] = Crystal; DSC
[2] = Molar enthalpy of transition or fusion; conditions: Crystal; DSC

Row | SMILES | Triple point temperature [1] [K] | Molar enthalpy of transition or fusion [2] [kcal/mol]
1 | Oc1c(Cl)cc(Cl)c2cccnc12 [5,7-dichloro-8-hydroxyquinoline] | 452.15 ± 1.2 | 9.51 ± 0.263
2 | Oc1ccc(Cl)c2cccnc12 [5-chloro-8-hydroxyquinoline] | 395.48 ± 1.2 | 6.05 ± 0.227
